In publication PMC6394990, “Detailed characterization of the solution kinetics and thermodynamics of biotin, biocytin and HABA binding to avidin and streptavidin” (PLoS ONE, 2019):
Values joined by “and” are separate entries in the source; they are usually repeats but may differ in a detail not shown here. Identical values can stand only once. Like-named read-outs stand apart in the source and are kept apart here.

Molecular target: T1, avidin (AV) (Gallus gallus, UniProt P02701)
T1 construct: purchased Calbiochem (La Jolla, CA)
T1 sequence (P02701 25-152): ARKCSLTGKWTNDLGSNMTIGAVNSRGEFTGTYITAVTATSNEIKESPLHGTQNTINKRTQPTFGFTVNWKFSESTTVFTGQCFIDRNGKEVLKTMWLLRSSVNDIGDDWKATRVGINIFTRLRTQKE
Experiment: Stopped-flow association kinetics of dye-labeled biotin probes binding to avidin (F(t), rF(t); Arrhenius plots/global fitting)
Parameters: ln(k) / dS+ / dG+ / Eon for BFl / b of the line y = m1x+b1: unit not given here
Conditions: for k(average): k (full value)
Experimental: These reactions were carried out in a buffered solution of 10 mM Tris-HCl, 100 mM KCl, 2.5 mM MgCl2 and 1 mM CaCl2 at pH 8 and only AV-BcO reactions included pH 9 and 10. The concentrations, after mixing, were of 20 nM of dye-labeled B7 probe and 260 nM, 520 nM or 1040 nM of AV; and 200 nM, 300 nM, 400 nM or 800 nM of SAV at temperatures of 10, 15, 20 and 25°C. The deglycosylation of AV (for comparative association reactions) was carried out using the provided standard protocol with endoglycosidase H [47], both with and without incubation of a denaturant solution (2% SDS and 1M 2-mercaptoethanol).
The reactions were collected with the SF instrument, described previously. The fluorescence signal was collected through a 520 nm interference filter (Oriel Corp., Stratford, CT) with a detector time constant and SF dead time of 1 μs and 1 ms, respectively. The excitation light was provided by the Coherent Ar^+ ion laser (described above) at 488 nm with […] of incident power on the reaction cuvette. The laser source was followed by the photo-elastic modulator described above with the axis oriented 45^o with respect to the electric vector of the incident light and with the half-wave modulation (50 kHz) set for 488 nm excitation. The demodulation circuitry following the photomultiplier provided a DC(t) and a rectified AC(t) which were converted to digital data by a high-speed digitizer (PCI-5122) from National Instruments (Austin, TX) with 14-bit resolution and 100 MHz bandwidth, through channels 0 and 1. The data acquisition was controlled by LabVIEW (Vr 8) software at a collection rate of 6120 data points/second and stored in spreadsheets. The AC(t) and DC(t) data were baseline corrected before obtaining the signal ratio (Eq 4) as a function of time (ρt).
The constant AGain is the instrumental amplitude gain and was evaluated by solving ρ(t) using the known steady state anisotropy (rss) of the complexes which is equivalent to the r(t) at t = ∞; and H, obtained from the equivalent grating factor (G) for the filters and photo multiplier tubes in the SF. For the probes used in here G was 0.82 and H = (1-G)/(1+G) = 0.099. Knowing Again and H, the AC(t) and DC(t) signals can be solved for r(t) and F(t) (Eqs 4 and 5) and the normalized fluorescence, F¯(t) , and corrected fluorescence anisotropy, rF¯(t), were obtained when F¯(0) and rF¯(0) were scaled to 1 at t = 0.
The F¯(t) (Eq 6) is equivalent to (I||) + 2 (I⊥) and proportional to quantum yield (QYi), molar absorptivity (εi) and to the formation or disappearance of the emitting species Xi(t); and rF¯(t) including the steady state anisotropies (rss) of each fluorescent species (Eq 7).
The possible reaction models were discriminated by the squared residuals of the observed and calculated association traces of both fluorescence and anisotropy fluorescence signals, F¯(t) and rF¯(t) , respectively.

[1] = AV, average over the dye-labeled B7 probes, used for AV-B7

`O=C(O)CCCC[C@@H]1SC[C@@H]2NC(=O)N[C@@H]21` [B7, d-biotin] was tested, and the “Eaon + (-∆H°)” value (AV-B) was 36.5 ± 1.3 kcal/mol, the “∆G°ǂ + (-∆G°)” value (AV-B) was 25.4 ± 1.0 kcal/mol and the “∆S°ǂ + (-∆S°)” value (AV-B) was 41.9 ± 2.0 cal/mol°K. For the same molecule, the “ΔE = Ea^Forward-Ea^Backward” value (AV-B7, column 3 minus 4) was -23.2 ± 2.2 kcal/mol and -23.2 kcal/mol, the “ΔG° ^ǂ, Forward -ΔG° ^ǂ, Backward” value (AV-B7, column 3 minus 4) was -20.0 ± 4.0 kcal/mol and the “ΔS° ^ǂ, Forward -ΔS° ^ǂ, Backward” value (AV-B7, column 3 minus 4) was -11.0 ± 2.5 cal/mol°K. For the same molecule, the “fold slower than 10^9 M^-1s^-1 (diffusion limited)” value (AV, 25°C) was 54-714 X, the “ΔG^ǂ, Forward” value [1] was 4.7 ± 0.3 kcal/mol and 4.7 kcal/mol and the “ΔS^ǂ, Forward” value [1] was 32 cal/°K·mol. For the same molecule, the “ΔS^ǂ, Forward” value (AV, average over the dye-labeled B7 probes, used for AV-B7, listed as B) was 33.0 ± 2.0 cal/°K·mol.

In the case of `O=C(CCCC[C@@H]1SC[C@@H]2NC(=O)N[C@@H]21)NCCNC(=O)c1ccc(-c2c3ccc(=O)cc-3oc3cc(O)ccc23)c(C(=O)O)c1` [BFl, Biotin-4-fluorescein], the “kon fold slower than Green's 7 × 10^7 M^-1s^-1” value (25°C and pH 8 vs 25°C and pH 5) is reported as 3.8 X, the “fold by which the SPR kon (ref 20) is slower than the kon of the probe” value (AV) is reported as ~ 9 X and the kon (AV, 25°C, read-out: kon) is reported as ~1.9e+07 M⁻¹ s⁻¹. The “Ea^Forward” value (AV, pH 8) was 14.6 ± 0.6 kcal/mol, the “ln(k)” value (AV, pH8, 10 (283.15 K)) was 15.4 and the “k(average)” value (AV, pH8, 10 (283.15 K)) was 4.86E+06. The kon (AV, pH8, 10 (283.15 K), k (scaled)) was 4.9e+06 M⁻¹ s⁻¹, the “ln(k)” value (AV, pH8, 15 (288.15 K)) was 15.8 and the “k(average)” value (AV, pH8, 15 (288.15 K)) was 7.60E+06. The kon (AV, pH8, 15 (288.15 K), k (scaled)) was 7.6e+06 M⁻¹ s⁻¹, the “ln(k)” value (AV, pH8, 20 (293.15 K)) was 16.2 and the “k(average)” value (AV, pH8, 20 (293.15 K)) was 1.07E+07. For the same molecule, the kon (AV, pH8, 20 (293.15 K), k (scaled)) was 1.07e+07 M⁻¹ s⁻¹, the “ln(k)” value (AV, pH8, 25 (298.15 K)) was 16.7 and the “k(average)” value (AV, pH8, 25 (298.15 K)) was 1.85E+07. The kon (AV, pH8, 25 (298.15 K), k (scaled)) was 1.85e+07 M⁻¹ s⁻¹, the “ΔG^ǂ” value (AV, pH 8, forward) was 4.2 ± 0.5 kcal/mol and the “ΔS^ǂ” value (AV, pH 8, forward) was 34.9 ± 2.0 cal/°K·mol. The “slope (Arrhenius linear fit)” value (AV, ph8) was -7342.9, the kcal/mol (from Arrhenius slope) (AV, ph8, the values are: Ea forward) was 14.6 kcal/mol and the “Eon for BFl” value (Enthalpy block, AV) was 14.4. It also gave a kon (pH 8, AV, pH 8, 10°C, read-out: kon) of 4.86e+06 ± 600000 M⁻¹ s⁻¹, a kon (pH 8, AV, pH 8, 15°C, read-out: kon) of 7.6e+06 ± 2e+06 M⁻¹ s⁻¹ and a kon (pH 8, AV, pH 8, 20°C, read-out: kon) of 1.07e+07 ± 1.6e+06 M⁻¹ s⁻¹. For the same molecule, the kon (pH 8, AV, pH 8, 25°C, read-out: kon) was 1.85e+07 ± 2e+06 M⁻¹ s⁻¹.
